From ChEMBL document CHEMBL1130625, “Synthesis and antibacterial activity of novel 7-(3-substituted-3 or 4-trifluoromethyl-1-pyrrolidinyl)-8-methoxyfluoroquinolones” (1998)
In brackets after ≈: the same amount, converted by molar mass.

Legend:
Klebsiella pneumoniae [1] = assay: Compound was tested for antibacterial activity against gram negative Klebsiella pneumoniae KC-1; type: functional; conditions: Klebsiella pneumoniae; read-out: MIC
Pseudomonas aeruginosa [2] = assay: Compound was tested for antibacterial activity against gram negative Pseudomonas aeruginosa PAO1; type: functional; conditions: Pseudomonas aeruginosa; read-out: MIC
Proteus mirabilis = assay: Compound was tested for antibacterial activity against gram negative Proteus mirabilis JY-10; type: functional; conditions: Proteus mirabilis; read-out: MIC
Staphylococcus aureus [3] = assay: Compound was tested for antibacterial activity against gram positive Staphylococcus aureus JS-1; type: functional; conditions: Staphylococcus aureus; read-out: MIC
Citrobacter freundii [4] = assay: Compound was tested for antibacterial activity against gram negative Citrobacter freundii No.7; type: functional; conditions: Citrobacter freundii; read-out: MIC
Klebsiella pneumoniae [5] = assay: Compound was tested for antibacterial activity against gram negative Klebsiella pneumoniae No.42; type: functional; conditions: Klebsiella pneumoniae; read-out: MIC
Staphylococcus aureus [6] = assay: Compound was tested for antibacterial activity against gram positive Staphylococcus aureus KP-90-3; type: functional; conditions: Staphylococcus aureus; read-out: MIC
Staphylococcus aureus [7] = assay: Compound was tested for antibacterial activity against gram positive Staphylococcus aureus smith; type: functional
Escherichia coli [8] = assay: Compound was tested for antibacterial activity against gram negative Escherichia coli ML4707; type: functional; conditions: Escherichia coli; read-out: MIC
Pseudomonas aeruginosa [9] = assay: Compound was tested for antibacterial activity against gram negative Pseudomonas aeruginosa KP-254; type: functional; conditions: Pseudomonas aeruginosa; read-out: MIC
Enterobacter cloacae = assay: Compound was tested for antibacterial activity against gram negative Enterobacter cloacae Nek39; type: functional; conditions: Enterobacter cloacae; read-out: MIC
Enterococcus faecalis = assay: Compound was tested for antibacterial activity against gram positive Enterococcus faecalis 1373; type: functional; conditions: Enterococcus faecalis; read-out: MIC
Streptococcus pyogenes = assay: Compound was tested for antibacterial activity against gram positive Streptococcus pyogenes cook; conditions: Streptococcus pyogenes; read-out: MIC
Staphylococcus aureus [10] = assay: Compound was tested for antibacterial activity against gram positive Staphylococcus aureus FDA 209P JC-1; type: functional; conditions: Staphylococcus aureus; read-out: MIC
Serratia marcescens = assay: Compound was tested for antibacterial activity against gram negative Serratia marcescens No.16-2; type: functional; conditions: Serratia marcescens; read-out: MIC
[11] = tested on: Acinetobacter calcoaceticus; assay: Compound was tested for antibacterial activity against gram negative Acinetobacter calcoaceticus No.4; type: functional; conditions: Acinetobacter calcoaceticus; read-out: MIC
Escherichia coli [12] = assay: Compound was tested for antibacterial activity against gram negative Escherichia coli CSH2/RE45; type: functional; conditions: Escherichia coli; read-out: MIC
Klebsiella oxytoca = assay: Compound was tested for antibacterial activity against gram negative Klebsiella oxytoca GN 10650; type: functional; conditions: Klebsiella oxytoca; read-out: MIC
Pseudomonas aeruginosa [13] = assay: Compound was tested for antibacterial activity against gram negative Pseudomonas aeruginosa AK109; type: functional; conditions: Pseudomonas aeruginosa; read-out: MIC
Escherichia coli [14] = assay: Compound was tested for antibacterial activity against gram negative Escherichia coli NIHJ JC-2; type: functional; conditions: Escherichia coli; read-out: MIC
Pseudomonas aeruginosa [15] = assay: Compound was tested for antibacterial activity against gram negative Pseudomonas aeruginosa K-13; type: functional; conditions: Pseudomonas aeruginosa; read-out: MIC
Citrobacter freundii [16] = assay: Compound was tested for antibacterial activity against gram negative Citrobacter freundii KP-29; type: functional; conditions: Citrobacter freundii; read-out: MIC
Proteus vulgaris [17] = assay: Compound was tested for antibacterial activity against gram negative Proteus vulgaris KS-134; type: functional; conditions: Proteus vulgaris; read-out: MIC
Escherichia coli [18] = assay: Compound was tested for antibacterial activity against gram negative Escherichia coli CSH2/RK1; type: functional; conditions: Escherichia coli; read-out: MIC
Burkholderia cepacia = assay: Compound was tested for antibacterial activity against gram negative Burkholderia cepacia 23; type: functional; conditions: Burkholderia cepacia; read-out: MIC
Proteus vulgaris [19] = assay: Compound was tested for antibacterial activity against gram negative Proteus vulgaris No.33; type: functional; conditions: Proteus vulgaris; read-out: MIC

Work on COc1c(N2CC[C@@](CO)(C(F)(F)F)C2)c(F)cc2c(=O)c(C(=O)O)cn(C3CC3)c12 yielded an MIC (Klebsiella pneumoniae [1]) of 1.56 µg/mL (≈ 3.51 µM), an MIC (Pseudomonas aeruginosa [2]) of 12.5 µg/mL (≈ 28.1 µM) and an MIC (Proteus mirabilis) of 0.39 µg/mL (≈ 0.878 µM). The MIC (Staphylococcus aureus [3]) was 0.05 µg/mL (≈ 0.113 µM), the MIC (Citrobacter freundii [4]) was 25 µg/mL (≈ 56.3 µM) and the MIC (Klebsiella pneumoniae [5]) was 3.13 µg/mL (≈ 7.04 µM). For the same compound, the MIC (Staphylococcus aureus [6]) was 3.13 µg/mL (≈ 7.04 µM), the MIC (Staphylococcus aureus [7]) was 0.025 µg/mL (≈ 0.0563 µM) and the MIC (Escherichia coli [8]) was 0.05 µg/mL (≈ 0.113 µM). For the same compound, the MIC (Pseudomonas aeruginosa [9]) was > 100 µg/mL, the MIC (Enterobacter cloacae) was 6.25 µg/mL (≈ 14.1 µM) and the MIC (Enterococcus faecalis) was 0.39 µg/mL (≈ 0.878 µM). The MIC (Streptococcus pyogenes) was 0.39 µg/mL (≈ 0.878 µM), the MIC (Staphylococcus aureus [10]) was 0.1 µg/mL (≈ 0.225 µM) and the MIC (Serratia marcescens) was 12.5 µg/mL (≈ 28.1 µM). For the same compound, the MIC [11] was 1.56 µg/mL (≈ 3.51 µM), the MIC (Escherichia coli [12]) was 25 µg/mL (≈ 56.3 µM) and the MIC (Klebsiella oxytoca) was 3.13 µg/mL (≈ 7.04 µM). For the same compound, the MIC (Pseudomonas aeruginosa [13]) was 12.5 µg/mL (≈ 28.1 µM), the MIC (Escherichia coli [14]) was 1.56 µg/mL (≈ 3.51 µM) and the MIC (Pseudomonas aeruginosa [15]) was 50 µg/mL (≈ 113 µM). For the same compound, the MIC (Citrobacter freundii [16]) was > 100 µg/mL, the MIC (Proteus vulgaris [17]) was 100 µg/mL (≈ 225 µM) and the MIC (Escherichia coli [18]) was 25 µg/mL (≈ 56.3 µM). It also gave an MIC (Burkholderia cepacia) of 3.13 µg/mL (≈ 7.04 µM) and an MIC (Proteus vulgaris [19]) of 1.56 µg/mL (≈ 3.51 µM).

Compound COc1c(N2C[C@@H](CO)[C@H](C(F)(F)F)C2)c(F)cc2c(=O)c(C(=O)O)cn(C3CC3)c12 has an MIC (Klebsiella pneumoniae [1]) of 1.56 µg/mL (≈ 3.51 µM), an MIC (Pseudomonas aeruginosa [2]) of 3.13 µg/mL (≈ 7.04 µM) and an MIC (Proteus mirabilis) of 0.2 µg/mL (≈ 0.45 µM). For the same compound, the MIC (Staphylococcus aureus [3]) was 0.013 µg/mL (≈ 0.0293 µM), the MIC (Citrobacter freundii [4]) was 12.5 µg/mL (≈ 28.1 µM) and the MIC (Klebsiella pneumoniae [5]) was 3.13 µg/mL (≈ 7.04 µM). The MIC (Staphylococcus aureus [6]) was 0.78 µg/mL (≈ 1.76 µM), the MIC (Staphylococcus aureus [7]) was ≤ 0.006 µg/mL and the MIC (Escherichia coli [8]) was 0.2 µg/mL (≈ 0.45 µM). The MIC (Pseudomonas aeruginosa [9]) was > 100 µg/mL, the MIC (Enterobacter cloacae) was 3.13 µg/mL (≈ 7.04 µM) and the MIC (Enterococcus faecalis) was 0.2 µg/mL (≈ 0.45 µM). For the same compound, the MIC (Streptococcus pyogenes) was 0.2 µg/mL (≈ 0.45 µM), the MIC (Staphylococcus aureus [10]) was 0.025 µg/mL (≈ 0.0563 µM) and the MIC (Serratia marcescens) was 6.25 µg/mL (≈ 14.1 µM). It also gave an MIC [11] of 0.78 µg/mL (≈ 1.76 µM), an MIC (Escherichia coli [12]) of 6.25 µg/mL (≈ 14.1 µM) and an MIC (Klebsiella oxytoca) of 1.56 µg/mL (≈ 3.51 µM). It also gave an MIC (Pseudomonas aeruginosa [13]) of 6.25 µg/mL (≈ 14.1 µM), an MIC (Escherichia coli [14]) of 0.39 µg/mL (≈ 0.878 µM) and an MIC (Pseudomonas aeruginosa [15]) of 25 µg/mL (≈ 56.3 µM). The MIC (Citrobacter freundii [16]) was > 100 µg/mL, the MIC (Proteus vulgaris [17]) was 100 µg/mL (≈ 225 µM) and the MIC (Escherichia coli [18]) was 6.25 µg/mL (≈ 14.1 µM). It also gave an MIC (Burkholderia cepacia) of 3.13 µg/mL (≈ 7.04 µM) and an MIC (Proteus vulgaris [19]) of 0.78 µg/mL (≈ 1.76 µM).

Compound COc1c(N2C[C@H](CO)[C@H](C(F)(F)F)C2)c(F)cc2c(=O)c(C(=O)O)cn(C3CC3)c12 has an MIC (Klebsiella pneumoniae [1]) of 0.39 µg/mL (≈ 0.878 µM), an MIC (Pseudomonas aeruginosa [2]) of 3.13 µg/mL (≈ 7.04 µM) and an MIC (Proteus mirabilis) of 0.1 µg/mL (≈ 0.225 µM). The MIC (Staphylococcus aureus [3]) was ≤ 0.006 µg/mL, the MIC (Citrobacter freundii [4]) was 6.25 µg/mL (≈ 14.1 µM) and the MIC (Klebsiella pneumoniae [5]) was 0.78 µg/mL (≈ 1.76 µM). The MIC (Staphylococcus aureus [6]) was 0.39 µg/mL (≈ 0.878 µM), the MIC (Staphylococcus aureus [7]) was ≤ 0.006 µg/mL and the MIC (Escherichia coli [8]) was 0.2 µg/mL (≈ 0.45 µM). The MIC (Pseudomonas aeruginosa [9]) was > 100 µg/mL, the MIC (Enterobacter cloacae) was 1.56 µg/mL (≈ 3.51 µM) and the MIC (Enterococcus faecalis) was 0.1 µg/mL (≈ 0.225 µM). It also gave an MIC (Streptococcus pyogenes) of 0.05 µg/mL (≈ 0.113 µM), an MIC (Staphylococcus aureus [10]) of 0.013 µg/mL (≈ 0.0293 µM) and an MIC (Serratia marcescens) of 3.13 µg/mL (≈ 7.04 µM). It also gave an MIC [11] of 0.2 µg/mL (≈ 0.45 µM), an MIC (Escherichia coli [12]) of 3.13 µg/mL (≈ 7.04 µM) and an MIC (Klebsiella oxytoca) of 0.78 µg/mL (≈ 1.76 µM). The MIC (Pseudomonas aeruginosa [13]) was 3.13 µg/mL (≈ 7.04 µM), the MIC (Escherichia coli [14]) was 0.39 µg/mL (≈ 0.878 µM) and the MIC (Pseudomonas aeruginosa [15]) was 25 µg/mL (≈ 56.3 µM). The MIC (Citrobacter freundii [16]) was > 100 µg/mL, the MIC (Proteus vulgaris [17]) was 100 µg/mL (≈ 225 µM) and the MIC (Escherichia coli [18]) was 3.13 µg/mL (≈ 7.04 µM). It also gave an MIC (Burkholderia cepacia) of 1.56 µg/mL (≈ 3.51 µM) and an MIC (Proteus vulgaris [19]) of 0.39 µg/mL (≈ 0.878 µM).

Compound COc1c(N2C[C@H](CN)[C@@H](C(F)(F)F)C2)c(F)cc2c(=O)c(C(=O)O)cn(C3CC3)c12.Cl has an MIC (Klebsiella pneumoniae [1]) of 0.1 µg/mL, an MIC (Pseudomonas aeruginosa [2]) of 6.25 µg/mL and an MIC (Proteus mirabilis) of 0.2 µg/mL. It also gave an MIC (Staphylococcus aureus [3]) of 0.013 µg/mL, an MIC (Citrobacter freundii [4]) of 1.56 µg/mL and an MIC (Klebsiella pneumoniae [5]) of 0.39 µg/mL. The MIC (Staphylococcus aureus [6]) was 0.78 µg/mL, the MIC (Staphylococcus aureus [7]) was ≤ 0.006 µg/mL and the MIC (Escherichia coli [8]) was 0.05 µg/mL. The MIC (Pseudomonas aeruginosa [9]) was > 100 µg/mL, the MIC (Enterobacter cloacae) was 1.56 µg/mL and the MIC (Enterococcus faecalis) was 0.05 µg/mL. The MIC (Streptococcus pyogenes) was 0.025 µg/mL, the MIC (Staphylococcus aureus [10]) was 0.05 µg/mL and the MIC (Serratia marcescens) was 0.78 µg/mL. It also gave an MIC [11] of 0.2 µg/mL, an MIC (Escherichia coli [12]) of 1.56 µg/mL and an MIC (Klebsiella oxytoca) of 0.2 µg/mL. The MIC (Pseudomonas aeruginosa [13]) was 6.25 µg/mL, the MIC (Escherichia coli [14]) was 0.2 µg/mL and the MIC (Pseudomonas aeruginosa [15]) was 50 µg/mL. For the same compound, the MIC (Citrobacter freundii [16]) was 50 µg/mL, the MIC (Proteus vulgaris [17]) was 50 µg/mL and the MIC (Escherichia coli [18]) was 3.13 µg/mL. For the same compound, the MIC (Burkholderia cepacia) was 1.56 µg/mL and the MIC (Proteus vulgaris [19]) was 0.39 µg/mL.

Work on COc1c(N2C[C@@H](C(F)(F)F)[C@@H](N)C2)c(F)cc2c(=O)c(C(=O)O)cn(C3CC3)c12.Cl yielded an MIC (Klebsiella pneumoniae [1]) of 0.2 µg/mL, an MIC (Pseudomonas aeruginosa [2]) of 3.13 µg/mL and an MIC (Proteus mirabilis) of 0.2 µg/mL. It also gave an MIC (Staphylococcus aureus [3]) of 0.05 µg/mL, an MIC (Citrobacter freundii [4]) of 3.13 µg/mL and an MIC (Klebsiella pneumoniae [5]) of 0.39 µg/mL. The MIC (Staphylococcus aureus [6]) was 1.56 µg/mL, the MIC (Staphylococcus aureus [7]) was 0.025 µg/mL and the MIC (Escherichia coli [8]) was 0.1 µg/mL. The MIC (Pseudomonas aeruginosa [9]) was > 100 µg/mL, the MIC (Enterobacter cloacae) was 3.13 µg/mL and the MIC (Enterococcus faecalis) was 0.39 µg/mL. For the same compound, the MIC (Streptococcus pyogenes) was 0.39 µg/mL, the MIC (Staphylococcus aureus [10]) was 0.05 µg/mL and the MIC (Serratia marcescens) was 3.13 µg/mL. For the same compound, the MIC [11] was 0.2 µg/mL, the MIC (Escherichia coli [12]) was 3.13 µg/mL and the MIC (Klebsiella oxytoca) was 0.39 µg/mL. For the same compound, the MIC (Pseudomonas aeruginosa [13]) was 6.25 µg/mL, the MIC (Escherichia coli [14]) was 0.2 µg/mL and the MIC (Pseudomonas aeruginosa [15]) was 50 µg/mL. For the same compound, the MIC (Citrobacter freundii [16]) was 100 µg/mL, the MIC (Proteus vulgaris [17]) was 100 µg/mL and the MIC (Escherichia coli [18]) was 3.13 µg/mL. The MIC (Burkholderia cepacia) was 1.56 µg/mL and the MIC (Proteus vulgaris [19]) was 0.39 µg/mL.
